Reference: patent US10414811B2, “Protease-resistant lipidated GLP-1 analogs” (MEDIMMUNE LIMITED, priority 2015, dated 2019)
Where two headings read alike, the source gives them in different places.

Experiments:
Type in all cases: cell-based
[1] = molecular target: T1, human GLP-1 receptor (GLP-1R) (Homo sapiens, UniProt P43220); assay: cAMP assay, human GLP-1R cells
T1 construct: expressed in transfected cells
Method in brief: (§1)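 Peptide-stimulated cAMP measured by two-step HTRF after a 30 min room-temperature incubation with receptor-expressing cells (hGLP-1R, hGIPR at 1×10^5 cells/ml; hGCGR at 2×10^5 cells/ml). Duplicate dilutions; EC50 from 4-parameter logistic fit of % Delta F.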

[2] = molecular target: T2, human glucagon receptor (GCGR) (Homo sapiens, UniProt P47871); assay: cAMP assay, human GCGR cells; conditions: cAMP assay
T2 construct: expressed in transfected cells
Method in brief: as §1

[3] = molecular target: T3, human glucose-dependent insulinotropic peptide receptor (GIPR) (Homo sapiens, UniProt P48546); assay: cAMP assay, human GIPR cells; conditions: cAMP assay
T3 construct: expressed in transfected cells
T3 sequence (P48546 22-466): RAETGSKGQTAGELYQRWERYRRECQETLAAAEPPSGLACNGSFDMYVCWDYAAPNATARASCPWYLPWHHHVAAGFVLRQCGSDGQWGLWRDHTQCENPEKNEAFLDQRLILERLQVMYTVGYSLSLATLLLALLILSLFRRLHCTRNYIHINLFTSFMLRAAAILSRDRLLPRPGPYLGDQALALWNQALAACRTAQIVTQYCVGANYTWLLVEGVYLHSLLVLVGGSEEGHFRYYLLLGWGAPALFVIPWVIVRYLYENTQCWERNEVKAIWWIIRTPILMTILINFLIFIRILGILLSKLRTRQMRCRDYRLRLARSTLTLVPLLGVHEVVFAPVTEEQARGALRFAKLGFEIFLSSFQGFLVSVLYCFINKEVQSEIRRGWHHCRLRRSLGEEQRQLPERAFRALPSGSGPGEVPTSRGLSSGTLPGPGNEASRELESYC
Method in brief: as §1

[4] = cAMP assay, first determination (n1), read-out: Primary assay EC50 GLP-1R n1
[5] = cAMP assay, second determination (n2), read-out: Primary assay EC50 GLP-1R n2
[6] = mean of n1 and n2, read-out: Mean pM GLP-1R
[7] = first determination (n1), read-out: Primary assay EC50 Gluc-R (n1)
[8] = second determination (n2), read-out: Primary assay EC50 Gluc-R (n2)
[9] = first determination (n1), read-out: Primary assay EC50 GIP-R (n1)
[10] = second determination (n2), read-out: Primary assay EC50 GIP-R (n2)

T1 sequence (P43220 24-463): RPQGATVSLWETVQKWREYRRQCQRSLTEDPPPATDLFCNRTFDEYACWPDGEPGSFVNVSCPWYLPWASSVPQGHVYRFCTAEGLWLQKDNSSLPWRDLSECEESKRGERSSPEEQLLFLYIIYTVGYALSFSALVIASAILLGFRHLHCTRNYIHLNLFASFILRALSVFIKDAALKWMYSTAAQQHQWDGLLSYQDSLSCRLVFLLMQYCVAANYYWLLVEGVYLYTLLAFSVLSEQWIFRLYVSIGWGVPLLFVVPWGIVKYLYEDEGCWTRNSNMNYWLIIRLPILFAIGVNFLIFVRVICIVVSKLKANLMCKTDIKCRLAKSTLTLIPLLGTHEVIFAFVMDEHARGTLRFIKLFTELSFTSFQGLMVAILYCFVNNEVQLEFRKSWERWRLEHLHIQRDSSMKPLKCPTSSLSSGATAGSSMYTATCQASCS
T2 sequence (P47871 26-477): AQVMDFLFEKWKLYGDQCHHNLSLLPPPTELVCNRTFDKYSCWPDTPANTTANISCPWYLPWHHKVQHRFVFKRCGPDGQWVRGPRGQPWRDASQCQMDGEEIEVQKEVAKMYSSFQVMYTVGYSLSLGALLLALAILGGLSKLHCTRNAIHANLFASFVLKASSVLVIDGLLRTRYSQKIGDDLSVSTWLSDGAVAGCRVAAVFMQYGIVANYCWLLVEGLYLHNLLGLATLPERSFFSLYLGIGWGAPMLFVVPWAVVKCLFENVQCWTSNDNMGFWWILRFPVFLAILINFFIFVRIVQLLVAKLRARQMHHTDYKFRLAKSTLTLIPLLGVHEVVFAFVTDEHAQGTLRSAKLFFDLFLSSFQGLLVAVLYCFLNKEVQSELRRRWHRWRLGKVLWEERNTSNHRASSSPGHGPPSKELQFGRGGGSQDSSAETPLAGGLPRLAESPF

Row | SMILES | EC50 [1, 4] [pM] | EC50 [1, 5] [pM] | EC50 [1, 6] [pM] | EC50 [2, 7] [nM] | EC50 [2, 8] [nM] | EC50 [3, 9] [nM] | EC50 [3, 10] [nM]
1 | CCCCCCCCCCCCCCCCCC(=O)NCCCCCC(=O)NCCCC[C@H](NC(=O)[C@H](C)NC(=O)[C@H](C)NC(=O)[C@H](CCC(=O)O)NC(=O)CNC(=O)[C@H](CCC(=O)O)NC(=O)[C@H](CC(C)C)NC(=O)[C@](C)(Cc1ccccc1)NC(=O)[C@H](CO)NC(=O)[C@](C)(CO)NC(=O)[C@@H](NC(=O)[C@H](CC(=O)O)NC(=O)[C@H](CO)NC(=O)[C@@H](NC(=O)[C@](C)(Cc1ccccc1)NC(=O)[C@H](CO)NC(=O)CNC(=O)[C@H](CCC(=O)O)NC(=O)C(C)(C)NC(=O)[C@@H](N)Cc1c[nH]cn1)[C@@H](C)O)C(C)C)C(=O)N[C@@H](CCC(=O)O)C(=O)N[C@@](C)(Cc1ccccc1)C(=O)N[C@H](C(=O)N[C@@H](C)C(=O)N[C@@](C)(Cc1ccccc1)C(=O)N[C@H](C(=O)N[C@H](C(=O)N[C@@](C)(CCCCN)C(=O)NCC(=O)NCC(N)=O)C(C)C)C(C)C)[C@@H](C)CC [compound 149] | 81 | 51 | 66.2 | ≥ 28 | ≥ 28 | ≥ 28 | ≥ 28
2 | CCCCCCCCCCCCCCCCCC(=O)NCCCCCC(=O)NCCCCCC(=O)NCCCC[C@H](NC(=O)[C@H](C)NC(=O)[C@H](C)NC(=O)[C@H](CCC(=O)O)NC(=O)CNC(=O)[C@H](CCC(=O)O)NC(=O)[C@H](CC(C)C)NC(=O)[C@](C)(Cc1ccccc1)NC(=O)[C@H](CO)NC(=O)[C@](C)(CO)NC(=O)[C@@H](NC(=O)[C@H](CC(=O)O)NC(=O)[C@H](CO)NC(=O)[C@@H](NC(=O)[C@](C)(Cc1ccccc1)NC(=O)[C@H](CO)NC(=O)CNC(=O)[C@H](CCC(=O)O)NC(=O)C(C)(C)NC(=O)[C@@H](N)Cc1c[nH]cn1)[C@@H](C)O)C(C)C)C(=O)N[C@@H](CCC(=O)O)C(=O)N[C@@](C)(Cc1ccccc1)C(=O)N[C@H](C(=O)N[C@@H](C)C(=O)N[C@@](C)(Cc1ccccc1)C(=O)N[C@H](C(=O)N[C@H](C(=O)N[C@@](C)(CCCCN)C(=O)NCC(=O)NCC(N)=O)C(C)C)C(C)C)[C@@H](C)CC [compound 150] | 28 | 22 | 25.4 | ≥ 27 | ≥ 27 | ≥ 27 | ≥ 27
3 | CCCCCCCCCCCCCCCCCC(=O)NCCCCCC(=O)NCCCCCC(=O)NCCCCCC(=O)NCCCC[C@H](NC(=O)[C@H](C)NC(=O)[C@H](C)NC(=O)[C@H](CCC(=O)O)NC(=O)CNC(=O)[C@H](CCC(=O)O)NC(=O)[C@H](CC(C)C)NC(=O)[C@](C)(Cc1ccccc1)NC(=O)[C@H](CO)NC(=O)[C@](C)(CO)NC(=O)[C@@H](NC(=O)[C@H](CC(=O)O)NC(=O)[C@H](CO)NC(=O)[C@@H](NC(=O)[C@](C)(Cc1ccccc1)NC(=O)[C@H](CO)NC(=O)CNC(=O)[C@H](CCC(=O)O)NC(=O)C(C)(C)NC(=O)[C@@H](N)Cc1c[nH]cn1)[C@@H](C)O)C(C)C)C(=O)N[C@@H](CCC(=O)O)C(=O)N[C@@](C)(Cc1ccccc1)C(=O)N[C@H](C(=O)N[C@@H](C)C(=O)N[C@@](C)(Cc1ccccc1)C(=O)N[C@H](C(=O)N[C@H](C(=O)N[C@@](C)(CCCCN)C(=O)NCC(=O)NCC(N)=O)C(C)C)C(C)C)[C@@H](C)CC [compound 151] | 22 | 15 | 18.2 | ≥ 26 | ≥ 26 | ≥ 26 | ≥ 26
4 | CCCCCCCCCCCCCCCCCC(=O)NCCOCCOCC(=O)NCCCC[C@H](NC(=O)[C@H](C)NC(=O)[C@H](C)NC(=O)[C@H](CCC(=O)O)NC(=O)CNC(=O)[C@H](CCC(=O)O)NC(=O)[C@H](CC(C)C)NC(=O)[C@](C)(Cc1ccccc1)NC(=O)[C@H](CO)NC(=O)[C@](C)(CO)NC(=O)[C@@H](NC(=O)[C@H](CC(=O)O)NC(=O)[C@H](CO)NC(=O)[C@@H](NC(=O)[C@](C)(Cc1ccccc1)NC(=O)[C@H](CO)NC(=O)CNC(=O)[C@H](CCC(=O)O)NC(=O)C(C)(C)NC(=O)[C@@H](N)Cc1c[nH]cn1)[C@@H](C)O)C(C)C)C(=O)N[C@@H](CCC(=O)O)C(=O)N[C@@](C)(Cc1ccccc1)C(=O)N[C@H](C(=O)N[C@@H](C)C(=O)N[C@@](C)(Cc1ccccc1)C(=O)N[C@H](C(=O)N[C@H](C(=O)N[C@@](C)(CCCCN)C(=O)NCC(=O)NCC(N)=O)C(C)C)C(C)C)[C@@H](C)CC [compound 152] | 39 | 31 | 34.7 | ≥ 28 | ≥ 28 | ≥ 28 | ≥ 28
5 | CC[C@H](C)[C@H](NC(=O)[C@](C)(Cc1ccccc1)NC(=O)[C@H](CCC(=O)O)NC(=O)[C@H](CCCCNC(=O)CC[C@H](NC(=O)CCCCCCCCCCCCCCCCC(=O)O)C(=O)O)NC(=O)[C@H](C)NC(=O)[C@H](C)NC(=O)[C@H](CCC(=O)O)NC(=O)CNC(=O)[C@H](CCC(=O)O)NC(=O)[C@H](CC(C)C)NC(=O)[C@](C)(Cc1ccccc1)NC(=O)[C@H](CO)NC(=O)[C@](C)(CO)NC(=O)[C@@H](NC(=O)[C@H](CC(=O)O)NC(=O)[C@H](CO)NC(=O)[C@@H](NC(=O)[C@](C)(Cc1ccccc1)NC(=O)[C@H](CO)NC(=O)CNC(=O)[C@H](CCC(=O)O)NC(=O)C(C)(C)NC(=O)[C@@H](N)Cc1c[nH]cn1)[C@@H](C)O)C(C)C)C(=O)N[C@@H](C)C(=O)N[C@@](C)(Cc1ccccc1)C(=O)N[C@H](C(=O)N[C@H](C(=O)N[C@@](C)(CCCCN)C(=O)NCC(=O)NCC(N)=O)C(C)C)C(C)C [compound 155] | 290 | 190 | 238 | ≥ 28 | ≥ 28 | ≥ 28 | ≥ 28
6 | CC[C@H](C)[C@H](NC(=O)[C@](C)(Cc1ccccc1)NC(=O)[C@H](CCC(=O)O)NC(=O)[C@H](CCCCNC(=O)CC[C@H](NC(=O)CC[C@H](NC(=O)CC[C@H](NC(=O)CCCCCCCCCCCCCCCCC(=O)O)C(=O)O)C(=O)O)C(=O)O)NC(=O)[C@H](C)NC(=O)[C@H](C)NC(=O)[C@H](CCC(=O)O)NC(=O)CNC(=O)[C@H](CCC(=O)O)NC(=O)[C@H](CC(C)C)NC(=O)[C@](C)(Cc1ccccc1)NC(=O)[C@H](CO)NC(=O)[C@](C)(CO)NC(=O)[C@@H](NC(=O)[C@H](CC(=O)O)NC(=O)[C@H](CO)NC(=O)[C@@H](NC(=O)[C@](C)(Cc1ccccc1)NC(=O)[C@H](CO)NC(=O)CNC(=O)[C@H](CCC(=O)O)NC(=O)C(C)(C)NC(=O)[C@@H](N)Cc1c[nH]cn1)[C@@H](C)O)C(C)C)C(=O)N[C@@H](C)C(=O)N[C@@](C)(Cc1ccccc1)C(=O)N[C@H](C(=O)N[C@H](C(=O)N[C@@](C)(CCCCN)C(=O)NCC(=O)NCC(N)=O)C(C)C)C(C)C [compound 157] | 240 | – | – | ≥ 26 | ≥ 26 | ≥ 26 | ≥ 26
7 | CC[C@H](C)[C@H](NC(=O)[C@](C)(Cc1ccccc1)NC(=O)[C@H](CCC(=O)O)NC(=O)[C@H](CCCCNC(=O)CCCCCNC(=O)CCCCCNC(=O)CCCCCCCCCCCCCCCCC(=O)O)NC(=O)[C@H](C)NC(=O)[C@H](C)NC(=O)[C@H](CCC(=O)O)NC(=O)CNC(=O)[C@H](CCC(=O)O)NC(=O)[C@H](CC(C)C)NC(=O)[C@](C)(Cc1ccccc1)NC(=O)[C@H](CO)NC(=O)[C@](C)(CO)NC(=O)[C@@H](NC(=O)[C@H](CC(=O)O)NC(=O)[C@H](CO)NC(=O)[C@@H](NC(=O)[C@](C)(Cc1ccccc1)NC(=O)[C@H](CO)NC(=O)CNC(=O)[C@H](CCC(=O)O)NC(=O)C(C)(C)NC(=O)[C@@H](N)Cc1c[nH]cn1)[C@@H](C)O)C(C)C)C(=O)N[C@@H](C)C(=O)N[C@@](C)(Cc1ccccc1)C(=O)N[C@H](C(=O)N[C@H](C(=O)N[C@@](C)(CCCCN)C(=O)NCC(=O)NCC(N)=O)C(C)C)C(C)C [compound 159] | 280 | 230 | 254 | ≥ 27 | ≥ 27 | ≥ 27 | ≥ 27
8 | CC[C@H](C)[C@H](NC(=O)[C@](C)(Cc1ccccc1)NC(=O)[C@H](CCC(=O)O)NC(=O)[C@H](CCCCNC(=O)CCCCCNC(=O)CCCCCNC(=O)CCCCCNC(=O)CCCCCCCCCCCCCCCCC(=O)O)NC(=O)[C@H](C)NC(=O)[C@H](C)NC(=O)[C@H](CCC(=O)O)NC(=O)CNC(=O)[C@H](CCC(=O)O)NC(=O)[C@H](CC(C)C)NC(=O)[C@](C)(Cc1ccccc1)NC(=O)[C@H](CO)NC(=O)[C@](C)(CO)NC(=O)[C@@H](NC(=O)[C@H](CC(=O)O)NC(=O)[C@H](CO)NC(=O)[C@@H](NC(=O)[C@](C)(Cc1ccccc1)NC(=O)[C@H](CO)NC(=O)CNC(=O)[C@H](CCC(=O)O)NC(=O)C(C)(C)NC(=O)[C@@H](N)Cc1c[nH]cn1)[C@@H](C)O)C(C)C)C(=O)N[C@@H](C)C(=O)N[C@@](C)(Cc1ccccc1)C(=O)N[C@H](C(=O)N[C@H](C(=O)N[C@@](C)(CCCCN)C(=O)NCC(=O)NCC(N)=O)C(C)C)C(C)C [compound 160] | 390 | 320 | 351 | ≥ 26 | ≥ 26 | ≥ 26 | ≥ 26
